According to BindingDB's records for doi:10.1111/j.1747-0285.2010.01011.x (University of Mainz, 2010):
pKi: −log10 of the molar value.

These molecules were tested against 5-hydroxytryptamine receptor 2A (Homo sapiens, UniProt P28223) (assay: Competition Binding Assay). Details: pH 7.4; 37 °C.
Method: 5-HT-2A receptor affinity was determined by a radioligand competition binding assay with GF-62 cells, a clonal cell line expressing high amounts of 5-HT-2A receptors.

Chain of 5-hydroxytryptamine receptor 2A (P28223 whole entry): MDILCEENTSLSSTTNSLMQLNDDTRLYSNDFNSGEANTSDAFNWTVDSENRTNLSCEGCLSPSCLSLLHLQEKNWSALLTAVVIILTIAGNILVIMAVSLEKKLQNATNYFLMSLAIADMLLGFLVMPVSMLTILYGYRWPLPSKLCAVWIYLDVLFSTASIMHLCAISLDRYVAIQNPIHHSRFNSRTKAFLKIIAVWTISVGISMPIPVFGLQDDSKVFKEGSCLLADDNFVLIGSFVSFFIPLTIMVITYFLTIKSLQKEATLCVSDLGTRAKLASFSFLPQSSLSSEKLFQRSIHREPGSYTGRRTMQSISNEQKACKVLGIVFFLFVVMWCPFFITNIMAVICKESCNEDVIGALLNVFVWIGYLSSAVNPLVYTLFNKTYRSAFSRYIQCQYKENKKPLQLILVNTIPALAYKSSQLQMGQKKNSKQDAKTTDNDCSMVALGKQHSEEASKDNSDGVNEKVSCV

SMILES | pKi
COc1cccc(C(O)C2CCN(CCn3c(=S)[nH]c4ccccc4c3=O)CC2)c1OC (centres undefined) [3-(2-{4-[(2,3-dimethoxyphenyl)(hydroxy)methyl]piperidin-1-yl}ethyl)-2-sulfanylidene-1,2,3,4-tetrahydroquinazolin-4-one, 4b] | 6.41
COc1c(OCCF)cccc1C(O)C1CCN(CCn2c(=S)[nH]c3ccccc3c2=O)CC1 (centres undefined) [3-[2-(4-{[3-(2-fluoroethoxy)-2-methoxyphenyl](hydroxy)methyl}piperidin-1-yl)ethyl]-2-sulfanylidene-1,2,3,4-tetrahydroquinazolin-4-one, 4c] | 6.45
COc1c(OCCF)cccc1/C(=N/OCCN(C)C)C1CCN(CCc2ccc(F)cc2)CC1 [(E)-[2-(dimethylamino)ethoxy]({[3-(2-fluoroethoxy)-2-methoxyphenyl]({1-[2-(4-fluorophenyl)ethyl]piperidin-4-yl})methylidene})amine, 8] | 7.24
COc1cccc(C(=O)C2CCN(CCn3c(=S)[nH]c4ccccc4c3=O)CC2)c1OC [3-(2-{4-[(2,3-dimethoxyphenyl)carbonyl]piperidin-1-yl}ethyl)-2-sulfanylidene-1,2,3,4-tetrahydroquinazolin-4-one, 4a] | 6.39
